# Reference: patent publication US20260234123A1, “Inhibitors of NLRP3” (Mwyngil Therapeutics, Inc., priority 2023, published 2026)
# Tested on: IL1b release THP-1
# Experiment: IL1b release THP-1 (ELISA)
# Type: cell-based
# Conditions: Homo sapiens; average EC50; THP-1 cells primed with 1 μg/ml LPS 4 h, stimulated with 10 μM Nigericin 2 h; IL-1β in supernatant by ELISA; read-out: THP 1 IL 1b, EC50
# Procedure, shortened: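 THP-1 cells in serum-free medium were primed with 1 μg/ml LPS for 4 h, then stimulated with 10 μM nigericin for 2 h at 37° C., 5% CO2. IL-1β in supernatant measured by ELISA; EC50 values binned into A–E ranges.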
row,Compound,EC50 [µM]
1,"Cc1cc(-c2ccc(C(F)(F)F)cc2N)nnc1N[C@@H]1CCCN(C(C)C)C1 [Compound 118, 6-[2-amino-4-(trifluoromethyl)phenyl]-N-[(3R)-1-isopropyl-3-piperidyl]-4-methyl-pyridazin-3-amine]",< 0.5
2,"CNc1cc(C(F)(F)F)ccc1-c1cc(C)c(N[C@@H]2CCCN(C(C)C)C2)nn1 [Compound 119, N-[(3R)-1-isopropyl-3-piperidyl]-4-methyl-6-[2-(methylamino)-4-(trifluoromethyl)phenyl]pyridazin-3-amine]",< 0.5
3,"Cc1cc(N[C@@H]2CCCN(C(C)C)C2)nnc1-c1ccc(C(F)(F)F)cc1NC(F)(F)F [Compound 122, N-[(3R)-1-isopropyl-3-piperidyl]-5-methyl-6-[4-(trifluoromethyl)-2-(trifluoromethylamino)phenyl]-pyridazin-3-amine]",0.5 to 1
4,"Cc1cc(N[C@@H]2CCCN(C(C)C)C2)nnc1-c1ccc(C(F)(F)F)cc1NC(=O)C(F)(F)C(F)(F)F [Compound 123, (R)-2,2,3,3,3-Pentafluoro-N-(2-(6-((1-isopropylpiperidin-3-yl)amino)-4-methylpyridazin-3-yl)-5-(trifluoromethyl)phenyl) propanamide]",1 to 5
5,"CCN1CCC[C@@H](Nc2cc(C)c(-c3ccc(C(F)(F)F)cc3N)nn2)C1 [Compound 130, (R)-6-(2-Amino-4-(trifluoromethyl)phenyl)-N-(1-ethylpiperidin-3-yl)-5-methylpyridazin-3-amine]",< 0.5
6,"CCN1CCC[C@@H](Nc2nnc(-c3ccc(C(F)(F)F)cc3N)cc2C)C1 [Compound 131, 6-[2-amino-4-(trifluoromethyl)phenyl]-N-[(3R)-1-ethyl-3-piperidyl]-4-methyl-pyridazin-3-amine]",< 0.5
7,"Cc1cc(N[C@@H]2CCCN(C(C)C)C2)nnc1-c1ccc(C(F)(F)F)cc1NC(=O)C(C)C [Compound 132, (R)—N-(2-(6-((1-Isopropylpiperidin-3-yl)amino)-4-methylpyridazin-3-yl)-5-(trifluoromethyl)phenyl) isobutyramide]",< 0.5
8,"CCN1CCC[C@@H](Nc2cc(C)c(-c3ccc(C(F)(F)F)cc3NC(C)=O)nn2)C1 [Compound 134, (R)—N-(2-(6-((1-ethylpiperidin-3-yl)amino)-4-methylpyridazin-3-yl)-5-(trifluoromethyl)phenyl) acetamide]",0.5 to 1
9,"Cc1cc(-c2ccc(C(F)(F)F)cc2NC(=O)C(C)(C)C)nnc1N[C@@H]1CCCN(C(C)C)C1 [Compound 135, N-[2-[6-[[(3R)-1-isopropyl-3-piperidyl]amino]-5-methyl-pyridazin-3-yl]-5-(trifluoromethyl)phenyl]-2,2-dimethyl-propanamide]",0.5 to 1
10,"CC(=O)Nc1cc(C(F)(F)F)ccc1-c1nnc(N[C@@H]2CCCN(C(C)C)C2)cc1C [Compound 136, N-[2-[6-[[(3R)-1-isopropyl-3-piperidyl]amino]-4-methyl-pyridazin-3-yl]-5-(trifluoromethyl)phenyl]acetamide]",0.5 to 1
11,"CC(=O)Nc1cc(C(F)(F)F)ccc1-c1cc(C)c(N[C@@H]2CCCN(C(C)C)C2)nn1 [Compound 137, N-[2-[6-[[(3R)-1-isopropyl-3-piperidyl]amino]-5-methyl-pyridazin-3-yl]-5-(trifluoromethyl)phenyl]acetamide]",1 to 5

# Now from value to compound:
row,EC50 [µM],Compound
1,< 0.5,Cc1cc(-c2ccc(C(F)(F)F)cc2NC(=O)C(F)F)nnc1N[C@@H]1CCCN(C(C)C)C1 [Compound 120]
2,0.5 to 1,"Cc1cc(-c2ccc(C(F)(F)F)cc2Nc2ccccc2)nnc1N[C@@H]1CCCN(C(C)C)C1 [Compound 121, 6-[2-anilino-4-(trifluoromethyl)phenyl]-N-[(3R)-1-isopropyl-3-piperidyl]-4-methyl-pyridazin-3-amine]"
3,1 to 5,"Cc1cc(-c2ccc(C(F)(F)F)cc2NC(=O)C(F)(F)C(F)(F)F)nnc1N[C@@H]1CCCN(C(C)C)C1 [Compound 125, 2,2,3,3,3-pentafluoro-N-[2-[6-[[(3R)-1-isopropyl-3-piperidyl]amino]-5-methyl-pyridazin-3-yl]-5-(trifluoromethyl)phenyl]propanamide]"
4,0.5 to 1,"CCN1CCC[C@@H](Nc2nnc(-c3ccc(C(F)(F)F)cc3NC(C)=O)cc2C)C1 [Compound 133, N-[2-[6-[[(3R)-1-ethyl-3-piperidyl]amino]-5-methyl-pyridazin-3-yl]-5-(trifluoromethyl)phenyl]acetamide]"
5,1 to 5,"Cc1cc(N[C@@H]2CCCN(C(C)C)C2)nnc1-c1ccc(C(F)(F)F)cc1NC(=O)C(C)(C)C [Compound 138, N-[2-[6-[[(3R)-1-isopropyl-3-piperidyl]amino]-4-methyl-pyridazin-3-yl]-5-(trifluoromethyl)phenyl]-2,2-dimethyl-propanamide]"
